Experimental data reported in the supplement of paper PMC4862054.

Columns and labels:
Conditions in all cases: incubation time: 72 h
CAL-51 [1] = experiment: normalised response (% of control), CellTox Green; higher = less cell death (100 = DMSO, 0 = benzethonium chloride kill control)
In short: (§1)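 Breast cancer cell lines, seeded at 20 µl suspension per well, were incubated for 72 h in 384-well plates containing compound at 5 concentrations. These concentrations rose in 10-fold steps over a 10,000-fold range set for each compound. CellTox Green fluorescence (485/520 nm) was read, then CellTiter-Glo luminescence after 10 min at room temperature, and each plate was normalised to 0.1 % DMSO (100) and a positive kill control (0). Values are normalised signals, each at one concentration.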

BT-549 [2] = experiment: as above
In short: as §1

HCC1599 [3] = experiment: as above
In short: as §1

HDQ-P1 [4] = experiment: as above
In short: as §1

DU-4475 [5] = experiment: as above
In short: as §1

MDA-MB-231 [6] = experiment: as above
In short: as §1

CAL-148 [7] = experiment: as above
In short: as §1

CAL-85-1 [8] = experiment: as above
In short: as §1

MDA-MB-468 [9] = experiment: as above
In short: as §1

BT-474 [10] = experiment: as above
In short: as §1

MDA-MB-453 [11] = experiment: as above
In short: as §1

MFM-223 [12] = experiment: as above
In short: as §1

MCF-10A [13] = experiment: as above
In short: as §1

CAL-120 [14] = experiment: as above
In short: as §1

HCC1143 [15] = experiment: as above
In short: as §1

HCC1937 [16] = experiment: as above
In short: as §1

MDA-MB-436 [17] = experiment: as above
In short: as §1

CAL-51 [18] = experiment: normalised response (% of control), CellTiter-Glo; higher = more viable cells (100 = DMSO, 0 = benzethonium chloride kill control)
Protocol: (§2)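 DSRT, 72 h incubation, CellTox Green / CellTiter-Glo readout. Signal is normalised to DMSO and benzethonium chloride controls. Value is the normalised response at dose 3.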

BT-549 [19] = experiment: as above
Protocol: as §2

HCC1599 [20] = experiment: as above
Protocol: as §2

HDQ-P1 [21] = experiment: as above
Protocol: as §2

Hs578T [22] = experiment: as above
Protocol: as §2

DU-4475 [23] = experiment: as above
Protocol: as §2

MDA-MB-231 [24] = experiment: as above
Protocol: as §2

CAL-148 [25] = experiment: as above
Protocol: as §2

CAL-85-1 [26] = experiment: as above
Protocol: as §2

MDA-MB-468 [27] = experiment: as above
Protocol: as §2

BT-474 [28] = experiment: as above
Protocol: as §2

MDA-MB-453 [29] = experiment: as above
Protocol: as §2

SK-BR-3 = experiment: as above
Protocol: as §2

MFM-223 [30] = experiment: as above
Protocol: as §2

MCF-10A [31] = experiment: as above
Protocol: as §2

CAL-120 [32] = experiment: as above
Protocol: as §2

HCC1143 [33] = experiment: as above
Protocol: as §2

HCC1937 [34] = experiment: as above
Protocol: as §2

MDA-MB-436 [35] = experiment: as above
Protocol: as §2

Hs578T [36] = experiment: normalised response (% of control), CellTox Green; higher = less cell death (100 = DMSO, 0 = benzethonium chloride kill control)
In short: as §1

| SMILES | normalised response (CAL-51 [1]) [%] | normalised response (BT-549 [2]) [%] | normalised response (HCC1599 [3]) [%] | normalised response (HDQ-P1 [4]) [%] | normalised response (DU-4475 [5]) [%] | normalised response (MDA-MB-231 [6]) [%] | normalised response (CAL-148 [7]) [%] | normalised response (CAL-85-1 [8]) [%] | normalised response (MDA-MB-468 [9]) [%] | normalised response (BT-474 [10]) [%] | normalised response (MDA-MB-453 [11]) [%] | normalised response (MFM-223 [12]) [%] | normalised response (MCF-10A [13]) [%] | normalised response (CAL-120 [14]) [%] | normalised response (HCC1143 [15]) [%] | normalised response (HCC1937 [16]) [%] | normalised response (MDA-MB-436 [17]) [%] | normalised response (CAL-51 [18]) [%] | normalised response (BT-549 [19]) [%] | normalised response (HCC1599 [20]) [%] | normalised response (HDQ-P1 [21]) [%] | normalised response (Hs578T [22]) [%] | normalised response (DU-4475 [23]) [%] | normalised response (MDA-MB-231 [24]) [%] | normalised response (CAL-148 [25]) [%] | normalised response (CAL-85-1 [26]) [%] | normalised response (MDA-MB-468 [27]) [%] | normalised response (BT-474 [28]) [%] | normalised response (MDA-MB-453 [29]) [%] | normalised response (SK-BR-3) [%] | normalised response (MFM-223 [30]) [%] | normalised response (MCF-10A [31]) [%] | normalised response (CAL-120 [32]) [%] | normalised response (HCC1143 [33]) [%] | normalised response (HCC1937 [34]) [%] | normalised response (MDA-MB-436 [35]) [%] | normalised response (Hs578T [36]) [%] |
| --- | --- | --- | --- | --- | --- | --- | --- | --- | --- | --- | --- | --- | --- | --- | --- | --- | --- | --- | --- | --- | --- | --- | --- | --- | --- | --- | --- | --- | --- | --- | --- | --- | --- | --- | --- | --- | --- |
| N[C@@H](Cc1ccc(N(CCCl)CCCl)cc1)C(=O)O [Melphalan] (125 nM) | 75.1 | 103 | 88.9 | 108 | 107 | 50.5 | 89.5 | 104 | 87.3 | 102 | 76.5 | 96.1 | 98.4 | 101 | 102 | 99.1 | 103 | 67.5 | 100 | 104 | 90.1 | 93.1 | 92.7 | 83.3 | 78.3 | 105 | 75.4 | 91.5 | 79.2 | 84.8 | 91.5 | 103 | 108 | 90.2 | 83.4 | 98.1 | – |
| Cc1c(C(=O)Nc2ccc(N3C[C@@H](C)O[C@@H](C)C3)nc2)cccc1-c1ccc(OC(F)(F)F)cc1 [Erismodegib] (100 nM) | 93.3 | 104 | 110 | 99.6 | 95.8 | 97.2 | 105 | 88.8 | – | 97.1 | 98.6 | 97.2 | 94.9 | 94.8 | 98.8 | – | 101 | 68.9 | 102 | 93.5 | 91.3 | 101 | 99.4 | 99.9 | 92.7 | 92.6 | 90.4 | 91.2 | 85 | 88.6 | 85.6 | 89.6 | 101 | 96.4 | 103 | 92.3 | 109 |
| C[C@]12C=CC(=O)C=C1CC[C@@H]1[C@@H]2C(=O)C[C@@]2(C)[C@H]1CC[C@]2(O)C(=O)CO [Prednisone] (100 nM) | 101 | 96.7 | 105 | – | 103 | – | 64.5 | 104 | 126 | 103 | 107 | 78.5 | 85.8 | 99.5 | 119 | – | 92.4 | 68.4 | 99.8 | 133 | 101 | 101 | 101 | 107 | 117 | 103 | 99.3 | 107 | 113 | 104 | 102 | 109 | 103 | 105 | 101 | 101 | 111 |
| Cc1c(N)nc([C@H](CC(N)=O)NC[C@H](N)C(N)=O)nc1C(=O)N[C@H](C(=O)N[C@H](C)[C@@H](O)[C@H](C)C(=O)N[C@H](C(=O)NCCc1nc(-c2nc(C(=O)NCCC[S+](C)C)cs2)cs1)[C@@H](C)O)[C@@H](OC1OC(CO)C(O)C(O)C1OC1OC(CO)C(O)C(OC(N)=O)C1O)c1cnc[nH]1 (stereo partly specified) [Bleomycin] (100 nM) | 36.9 | 87.6 | 91.9 | 110 | 98.6 | 104 | 93.5 | 99.8 | 151 | 98.1 | 103 | 101 | 93.2 | 95.1 | 91.3 | – | 58.6 | 55 | 77.2 | 94.6 | 99.5 | 93.2 | 93.8 | 89.3 | 87.7 | 96.8 | 80.4 | 95.8 | 90.2 | 92.8 | 95.6 | 90.6 | 95.3 | 90.6 | 84.2 | 89.1 | 81.2 |
